According to patent US9879032B2, “Pyridine compounds” (Daiichi Sankyo Company, Limited, priority 2015, dated 2018):

Tested on: plasma ALP (80-90% containing TNAP)
Assay: Inhibitory test of plasma TNAP activity in B6 mouse
Type: in vivo
Conditions: administered orally, average inhibition from 0 hour to 6 hours after administration
Method: After blood sampling from the tail vein using a heparin-treated hematocrit capillary tube (EM Meister Hematocrit Capillary Tube, AS ONE Corp.) (as the sample before compound administration), each test compound suspended in a 0.5% methylcellulose solution (powder purchased from Wako Pure Chemical Industries, Ltd. was adjusted to 0.5% with Otsuka distilled water) was administered orally to the mouse. 1, 2, 4, 6, and 24 hours after the administration, blood was collected from the tail vein using a heparin-treated hematocrit capillary tube to obtain a plasma sample. The plasma sample was added to an assay buffer (1 M Tris, 1 M MgCl2, 20 mM ZnCl2, and water, pH 7.5), and the mixture was left standing for 5 minutes. Then, the absorbance at 405 nm was measured and used as a blank. The substrate pNPP was added to the plasma sample and incubated at room temperature for 180 minutes. Then, the absorbance (ABS: 405 nm) was measured using a microplate reader (model plus 384, Molecular Devices, LLC), and the concentration of produced p-nitrophenol was calculated. The blank was subtracted from all measurement values to calculate TNAP activity at each time point with the TNAP activity of the sample before compound administration defined as 100%. The pharmaceutical effect of the test compound was evaluated by the average inhibition of plasma ALP (80-90% containing TNAP) activity for 6 hours from 0 hour to 6 hours after the administration of the test compound. It was calculated according to the following expression: 100−((plasma ALP activity at 0 hr+plasma ALP activity at 1 hr)*1/2+(plasma ALP activity at 1 hr+plasma ALP activity at 2 hr)*1/2+(plasma ALP activity at 2 hr+plasma ALP activity at 4 hr)*2/2+(plasma ALP activity at 4 hr+plasma ALP activity at 6 hr)*2/2)/6.

| Compound | Plasma ALP inhibition (6 h ave. inhibition %) |
| --- | --- |
| COc1ccc(Br)cc1S(=O)(=O)[N-]c1cnc2c(c1)C(=O)N[C@@H](CO)CO2.[K+] [Example 53, Potassium [(5-bromo-2-methoxyphenyl)sulfonyl][(3S)-3-(hydroxymethyl)-5-oxo-2,3,4,5-tetrahydropyrido[3,2-f][1,4]oxazepin-7-yl]azanide] | 59.2% |
| COc1ccc(OC)c(S(=O)(=O)[N-]c2cnc3c(c2)C(=O)NC2(CC2)CO3)c1.[K+] [Example 61, Potassium [(2,5-dimethoxyphenyl)sulfonyl](5′-oxo-4′,5′-dihydrospiro[cyclopropane-1,3′-pyrido[3,2-f][1,4]oxazepin]-7′-yl)azanide] | 67.5% |
